Results published in US8183262B2, “Pyridine derivatives as mGluR2 antagonists” (Hoffmann-La Roche Inc., priority 2007, dated 2012).

| melting point | SMILES |
| --- | --- |
| 220 to 222 °C | Nc1ccc(-c2cn(-c3nc(-c4ccc(Cl)cc4)cc(C4CC4)n3)cn2)cn1 [Example 49, 5-{1-[4-(4-Chloro-phenyl)-6-cyclopropyl-pyrimidin-2-yl]-1H-imidazol-4-yl}-pyridin-2-ylamine] |
| 180 to 182 °C | Clc1ccc(-c2cc(C3CC3)nc(-n3cnc(-c4cccnc4)c3)n2)cc1 [Example 50, 4-(4-Chloro-phenyl)-6-cyclopropyl-2-(4-pyridin-3-yl-imidazol-1-yl)-pyrimidine] |
| 238 to 240 °C | Nc1ncc(-c2cn(-c3nc(-c4ccc(Cl)cc4)cc(C4CC4)n3)cn2)cn1 [Example 51, 5-{1-[4-(4-Chloro-phenyl)-6-cyclopropyl-pyrimidin-2-yl]-1H-imidazol-4-yl}-pyrimidin-2-ylamine] |
| 188 to 190 °C | Nc1ccc(-c2cn(-c3nccc(-c4ccc(Cl)cc4)n3)cn2)cn1 [Example 52, 5-{1-[4-(4-Chloro-phenyl)-pyrimidin-2-yl]-1H-imidazol-4-yl}-pyridin-2-ylamine] |
| 262 °C | Nc1ccc(-c2cn(-c3nc(-c4cccc(C(F)(F)F)c4)cc(C(F)(F)F)n3)cn2)cn1 [Example 53, 5-{1-[4-Trifluoromethyl-6-(3-trifluoromethyl-phenyl)-pyrimidin-2-yl]-1H-imidazol-4-yl}-pyridin-2-ylamine] |
| 224 to 226 °C | Cc1cc(-c2ccc(C(F)(F)F)cc2)cc(-n2cnc(-c3ccc(N)nc3)c2)n1 [Example 58, 5-{1-[6-Methyl-4-(4-trifluoromethyl-phenyl)-pyridin-2-yl]-1H-imidazol-4-yl}-pyridin-2-ylamine] |
| 130 to 135 °C | Nc1ccc(-c2cccc(-c3cc(-c4ccc(C(F)(F)F)cc4)cc(C4CC4)n3)c2)cn1 [Example 64, 5-{3-[6-Cyclopropyl-4-(4-trifluoromethyl-phenyl)-pyridin-2-yl]-phenyl}-pyridin-2-ylamine] |
| > 250 °C | Nc1ncc(-c2cn(-c3cc(C(F)(F)F)cc(-c4ccc(C(F)(F)F)cc4)n3)cn2)cn1 [Example 66, 5-{1-[4-Trifluoromethyl-6-(4-trifluoromethyl-phenyl)-pyridin-2-yl]-1H-imidazol-4-yl}-pyrimidin-2-ylamine] |
| 161 to 177 °C | Cc1cc(-c2ccc(C(F)(F)F)cc2)cc(-c2cncc(-c3ccc(N)nc3)c2)n1 [Example 67, 6-Methyl-4-(4-trifluoromethyl-phenyl)-[2,3′;5′,3″]terpyridin-6″-ylamine] |
| 248 to 252 °C | Cc1cc(-c2ccc(C(F)(F)F)cc2)cc(-c2cncc(-c3cnc(N)nc3)c2)n1 [Example 68, 5-[6-Methyl-4-(4-trifluoromethyl-phenyl)-[2,3′]bipyridinyl-5′-yl]-pyrimidin-2-ylamine] |
| 207 to 209 °C | Nc1ccc(-c2cncc(-c3cc(-c4ccc(C(F)(F)F)cc4)cc(C4CC4)n3)c2)cn1 [Example 69, 6-Cyclopropyl-4-(4-trifluoromethyl-phenyl)-[2,3′;5′,3″]terpyridin-6″-ylamine] |
| > 245 °C | Cc1cc(-c2ccc(C(F)(F)F)cc2)cc(-c2ccnc(-c3cnc(N)nc3)c2)n1 [Example 76, 5-[6-Methyl-4-(4-trifluoromethyl-phenyl)-[2,4′]bipyridinyl-2′-yl]-pyrimidin-2-ylamine] |
| 172 to 174 °C | Nc1ccc(-c2cc(-c3cc(-c4ccc(C(F)(F)F)cc4)cc(C4CC4)n3)ccn2)cn1 [Example 77, 6-Cyclopropyl-4-(4-trifluoromethyl-phenyl)-[2,4′;2′,3″]terpyridin-6″-ylamine] |
| 242 to 245 °C | Nc1ncc(-c2cc(-c3cc(-c4ccc(C(F)(F)F)cc4)cc(C4CC4)n3)ccn2)cn1 [Example 78, 5-[6-Cyclopropyl-4-(4-trifluoromethyl-phenyl)-[2,4′]bipyridinyl-2′-yl]-pyrimidin-2-ylamine] |
| 143 to 147 °C | Cc1cc(-c2ccc(C(F)(F)F)cc2)cc(-c2cccc(-c3ccncc3)c2)n1 [Example 79, 2-Methyl-6-(3-pyridin-4-yl-phenyl)-4-(4-trifluoromethyl-phenyl)-pyridine] |
